Source: article PMC6287471 (International Journal for Parasitology: Drugs and Drug …, 2018)
Counter-ions that a name gives are not always drawn.

Assays:
Format in all cases: cell-based
Hco-ACC-2 F200Y = target: T1, Hco-ACC-2 F200Y (Haemonchus contortus, UniProt A0A219KWM7, F200Y); assay: Two-electrode voltage clamp of Hco-ACC-2 F200Y mutant in Xenopus laevis oocytes
T1 sequence (A0A219KWM7 18-443 F200Y): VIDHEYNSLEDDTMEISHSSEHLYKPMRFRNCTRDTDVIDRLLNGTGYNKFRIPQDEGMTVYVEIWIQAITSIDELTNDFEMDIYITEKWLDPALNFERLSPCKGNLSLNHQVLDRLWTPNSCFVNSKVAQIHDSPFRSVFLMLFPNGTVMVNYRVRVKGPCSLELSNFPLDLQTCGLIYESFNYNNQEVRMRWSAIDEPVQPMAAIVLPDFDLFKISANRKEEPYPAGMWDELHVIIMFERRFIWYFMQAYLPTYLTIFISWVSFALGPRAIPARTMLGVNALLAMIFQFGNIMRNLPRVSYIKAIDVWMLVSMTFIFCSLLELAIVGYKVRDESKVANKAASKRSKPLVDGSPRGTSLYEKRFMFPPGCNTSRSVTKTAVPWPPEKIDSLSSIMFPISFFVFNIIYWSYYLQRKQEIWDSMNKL

Hco-ACC-2 F200W = target: T2, Hco-ACC-2 F200W (Haemonchus contortus, UniProt A0A219KWM7, F200W); assay: Two-electrode voltage clamp of Hco-ACC-2 F200W mutant in Xenopus laevis oocytes
T2 sequence (A0A219KWM7 18-443 F200W): T1 sequence (A0A219KWM7 18-443 F200Y)

Hco-ACC-2 W248Y = target: T3, Hco-ACC-2 W248Y (Haemonchus contortus, UniProt A0A219KWM7, W248Y); assay: Two-electrode voltage clamp of Hco-ACC-2 W248Y mutant in Xenopus laevis oocytes
T3 sequence (A0A219KWM7 18-443 W248Y): T1 sequence (A0A219KWM7 18-443 F200Y)

Hco-ACC-2 W248F = target: T4, Hco-ACC-2 W248F (Haemonchus contortus, UniProt A0A219KWM7, W248F); assay: Two-electrode voltage clamp of Hco-ACC-2 W248F mutant in Xenopus laevis oocytes
T4 sequence (A0A219KWM7 18-443 W248F): T1 sequence (A0A219KWM7 18-443 F200Y)

Hco-ACC-2 F200W/W248F = target: T5, Hco-ACC-2 F200W/W248F (Haemonchus contortus, UniProt A0A219KWM7, F200W/W248F)
T5 sequence (A0A219KWM7 18-443 F200W/W248F): T1 sequence (A0A219KWM7 18-443 F200Y)

[1] = EC50 ± standard error, F200Y, F200Y mutant, n ≥ 5 oocytes

Row | SMILES | EC50 (Hco-ACC-2 F200Y; [1]) | EC50 (Hco-ACC-2 F200W) | EC50 (Hco-ACC-2 W248Y) | EC50 (Hco-ACC-2 W248F) | EC50 (Hco-ACC-2 F200W/W248F) | EC50 (Hco-ACC-2 F200Y; EC50, F200Y mutant)
1 | CC(=O)OC(C)C[N+](C)(C)C (stereo not drawn) [Methacholine, Acetyl-β-methylcholine Chloride] | 0.02 ± 0.001 mM | 0.644 ± 0.084 mM | > 1 mM | > 1 mM | > 20 mM | 
2 | C[N+](C)(C)CCO [Choline, Choline Chloride] | 0.65 ± 0.013 mM | 4.77 ± 0.543 mM | > 1 mM | > 1 mM | > 20 mM | 
3 | CC(C[N+](C)(C)C)OC(N)=O (stereo not drawn) [Urecholine, Carbamyl-β-methylcholine chloride] | 0.081 ± 0.003 mM | 2.15 ± 0.215 mM | > 1 mM | > 1 mM | > 20 mM | 
4 | c1ccc([C@H]2CN3CCSC3=N2)cc1 [Levamisole, Levamisole Hydrochloride] | 0.039 ± 0.003 mM |  | > 1 mM | > 1 mM | > 20 mM | 
5 | CN1CCCN=C1/C=C/c1cccs1 [Pyrantel, Pyrantel Citrate Salt] | 0.044 ± 0.002 mM | 0.16 ± 0.02 mM | > 1 mM | > 1 mM | > 20 mM | 
6 | C[N+](C)(C)CCOC(N)=O [Carbachol, Carbamoylcholine Chloride] | 0.0097 ± 0.0005 mM | 0.067 ± 0.004 mM | > 1 mM | > 1 mM | > 20 mM | 
7 | CN1CCC[C@H]1c1cccnc1 [Nicotine] |  |  |  |  |  | 0.277 ± 0.008 mM
